Source: patent US8470807B2, “Antioxidant” (Morinaga Milk Industry Co., Ltd., priority 2008, dated 2013)

Key:
ApoE gene-deficient mice [1] = experiment: Inhibition of lipid peroxide formation in blood (serum TBARS/MDA) in ApoE gene-deficient mice; type: in vivo, mouse; details: 30 μg per day; for Amount of lipid peroxide in blood (MDA concentration): serum, 14 days after start of administration, oral once a day, high-cholesterol diet
Excerpt: The actions of inhibiting formation of a lipid peroxide of various test samples including the antioxidant of the present invention can be evaluated by using, as an index, the amount of a thiobarbituric acid (TBA) reactive substance (TBARS), for example. Specifically, it may be defined that the larger the amount of the TBARS, the larger the amount of a lipid peroxide formed.
Examples of the TEARS include malondialdehyde (MDA) which reacts with TBA under high-temperature and acidic conditions and is a natural by-product of a lipid peroxidation. An MDA-TBA adduct can be detected by measurement of an absorbance at 530 to 540 nm to perform colorimetric measurement of MDA.
Also, the action of inhibiting formation of a lipid peroxide of a test sample can be evaluated using ApoE gene-deficient mice, which are often used as model animals which develop arteriosclerosis by hypercholesterolemia (hyper-LDL-cholesterolemia) (for example, see Reference Document 1: “Saibokogaku (Cell Engineering),” Extra Issue, “Medical Experiment Manual” series, Strategy for Study of Arteriosclerosis+Hyperlipidemia, Shujunsha Co., 1st edition, 1st impression, published on Apr. 1, 1996, pp. 441-443).
Further, in the model mice, the lipid peroxide level is higher than that of normal mice, and formation of atherosclerotic lesions (plagues) in the artery is observed with time. Therefore, the action of inhibiting formation of a lipid peroxide of a test sample can be evaluated by administering the test sample to the model mice and measuring a lipid peroxide in blood of the model mice.
Those samples were separately dissolved in propylene glycol, and diluted with distilled water so as to obtain test solutions with the concentration of each compound of 30 μg/ml, and the solutions were used for a test. Note that physiological saline was used as a negative sample.
(§1) Six-week-old male ApoE gene-deficient mice (purchased from Japan SLC, Inc.) were preliminarily fed with a high-cholesterol diet (manufactured by Research Diets, Inc.) for 2 weeks and divided into groups each of 15 mice.
To mice of each group, the test solution including the test samples 1 to 6, control sample, or negative sample was separately administered orally once a day for […] using medical probes in an amount of 1 ml per 25 g of mouse body weight. At an early period after the start of administration (14 days after the start of administration), blood was collected from the tail vein of each mouse, and serum was separated. Then, the amount of TBARS was measured using OxiSelect TBARS Assay Kit (manufactured by […]). Meanwhile, as a control, blood was collected from each normal mouse in the same manner as above.

ApoE gene-deficient mice [2] = experiment: Number of atherosclerotic lesions (plaques) in thoracic aorta of ApoE gene-deficient mice; type: in vivo, mouse; details: 40 days after start, oral once a day for 39 consecutive days; for Number of plaques formed in thoracic aorta: 1 ml of 30 μg/ml per 25 g body weight, Oil red staining
Excerpt: In addition, it is generally known that a primary lesion of arteriosclerosis is caused by oxidized LDL. Therefore, it is also possible to evaluate the action of reducing a risk of arteriosclerosis through inhibiting formation of a lipid peroxide of the test sample by counting the number of atherosclerotic lesions (plaques) in the artery of each model mouse treated with the test sample.
In Example 2, a cyclolanostane compound, a lophenol compound, and a mixture of the cyclolanostane compound and the lophenol compound were each evaluated on the effect of reducing a risk of arteriosclerosis through the effect of inhibiting a lipid peroxide by counting the number of atherosclerotic lesions (plaques) in the artery using known arteriosclerosis model animals, ApoE gene-deficient mice.
Test samples 1 to 6, a control sample, and a negative sample were prepared in the same way as in Example 1 above and were each used for a test.
as §1
To mice of each group, the sample solution including the test samples, control sample, or negative sample was separately administered orally once a day for 39 consecutive days using medical probes in an amount of 1 ml per 25 g of mouse body weight. Forty days after the start of administration, the thoracic aorta part was fixed with formalin and stained with Oil red, and the number of plaques was counted.

| SMILES | effect of inhibiting formation of a lipid peroxide in blood compared with the negative sample (ApoE gene-deficient mice [1]; serum TBARS, 14 days after start of oral administration) | Amount of lipid peroxide in blood (MDA concentration) (ApoE gene-deficient mice [1]) [µM] | plaque formation compared with the negative sample (ApoE gene-deficient mice [2]) | Number of plaques formed in thoracic aorta (ApoE gene-deficient mice [2]) |
| --- | --- | --- | --- | --- |
| CC[C@H](C)C(=O)O[C@H]1C[C@H](O)C=C2C=C[C@H](C)[C@H](CC[C@@H](O)C[C@@H](O)CC(=O)[O-])[C@H]21.[Na+] [Control sample, reference compound] | a significant decrease in amount of a lipid peroxide in blood was not observed | 0.93 ± 0.05 | no significant difference | 10.6 ± 3.2 |
| CC(C)CCCC(C)C1CCC2(C)C3CCC4C(C)(C)C(O)CCC45CC35CCC12C (centres unmarked) [Test sample 1, 9,19-Cyclolanostan-3-ol] | – | 0.62 ± 0.01 | – | 6.0 ± 0.7 |
| C=C(CCC(C)C1CCC2(C)C3CCC4C(C)(C)C(O)CCC45CC35CCC12C)C(C)C (centres unmarked) [Test sample 2, 24-methylene-9,19-cyclolanostan-3-ol] | – | 0.5 ± 0.19 | – | 5.6 ± 1.5 |
| CC(C)CCC[C@@H](C)[C@H]1CC[C@H]2C3=CCC4C(C)C(O)CC[C@]4(C)[C@H]3CC[C@]12C (some centres unmarked) [Test sample 3, 4-Methylcholest-7-en-3-ol] | – | 0.71 ± 0.08 | – | 6.2 ± 1.9 |
| CC(C)C(C)CCC(C)C1CCC2C3=CCC4C(C)C(O)CCC4(C)C3CCC21C (centres unmarked) [Test sample 4, 4-methylergost-7-en-3-ol] | – | 0.69 ± 0.05 | – | 5.0 ± 1.4 |
| CCC(CCC(C)C1CCC2C3=CCC4C(C)C(O)CCC4(C)C3CCC21C)C(C)C (centres unmarked) [Test sample 5, 4-methylstigmast-7-en-3-ol] | – | 0.72 ± 0.02 | – | 5.6 ± 2.1 |
